# Assay: Plasma exposure in mice of the Karpas-299 study
smiles,measurement,setting,value
CC(C)NC(=O)[C@H]1CC[C@@H](n2c(NC(=O)c3ccc(F)cc3)nc3ccc(CN4CCC(C(C)(C)O)CC4)cc32)CC1 [TSR-011],Overall 24-h exposure,oral daily dosing of 60 mg/kg,"15,500 ng×h/mL"
same,Plasma concentration,"oral dose 60 mg/kg, at 8 h",698.00 nM

# Reference: publication PMC6738096 (British Journal of Cancer, 2019)
